Assay results published in US20180221352A1, “3-(1H-PYRROLO[2,3-C]PYRIDIN-2-YL)-1H-PYRAZOLO[3,4-B]PYRIDINES AND THERAPEUTIC USES THEREOF” (Samumed, LLC, priority 2015, published 2018).
Values belong to the compound of their own block, whether it stands above or below them.

Assays:
Assay type in all cases: cell-based
SW480 colon cancer cells = assay: Cell viability assay (CellTiter-Blue); conditions: Homo sapiens, 96 h; SW480 cell viability, four days
Procedure: Representative compounds were screened using the following assay procedure to assess the effect on cell viability as described below.
Approximately 2×10^3 SW480 colon cancer cells were seeded into each well and allowed to incubate in the presence or absence of compound for four days at 37° C./5% CO2. Eight replicates of DMSO-treated cells served as controls and cells treated with compound were performed in duplicate.
After incubation, 20 μL of CellTiter-Blue (Promega) was added to each well allowed to incubate for approximately 3 hours. This reagent was a buffered solution which contains resazurin, metabolically active cells were able to reduce rezarurin (blue) into resorufin (pink) which was highly fluorescent. This measured fluorescence was used as a readout for cell viability.

[1] = test system: Wnt activity (Sp5-Luc reporter, SW480 colon carcinoma cells); assay: Wnt activity screening assay, Sp5-Luc reporter gene in SW480 cells; conditions: Homo sapiens; for EC50: Sp5-Luc reporter, SW480 cells, overnight incubation
From the text: The screening assay for Wnt activity is described as follows. Reporter cell lines can be generated by stably transducing cancer cell lines (e.g., colon cancer) or primary cells (e.g., IEC-6 intestinal cells) with a lentiviral construct that includes a Wnt-responsive promoter driving expression of the firefly luciferase gene.
SW480 colon carcinoma cells were transduced with a lentiviral vector expressing luciferase with a human Sp5 promoter consisting of a sequence of eight TCF/LEF binding sites. SW480 cells stably expressing the Sp5-Luc reporter gene and a hygromycin resistance gene were selected by treatment with 150 μg/mL of hygromycin for 7 days. These stably transduced SW480 cells were expanded in cell culture and used for all further screening activities. […] For Sp5-Luc reporter gene assays, the cells were plated at 4,000 cells/well in 384-well plates with medium containing 1% fetal bovine serum and incubated overnight at 37° C. and 5% CO2. Following incubation, 20 μl of BrightGlo luminescence reagent (Promega) was added to each well of the 384-well assay plates. The plates were placed on an orbital shaker for 2 min and then luminescence was quantified using the Envision (Perkin Elmer) plate reader. Readings were normalized to DMSO only treated cells, and normalized activities were utilized for EC50 calculations using the dose-response log (inhibitor) vs. response−variable slope (four parameters) nonlinear regression feature available in GraphPad Prism 5.0 (or Dotmatics).

[2] = test system: primary human mesenchymal stem cells (hMSCs); assay: Induction of chondrogenesis in hMSCs (nodule count); conditions: 6 days; for EC50: concentration required to induce 50% levels of chondrogenesis vs TGF-β3, read-out: Conc (nM) of 50% TGF-β3 activity; for Emax: relative to TGF-β3 (10 ng/mL) positive control, read-out: Max. Activity as % TGF-β3 activity
From the text: Representative compounds were screened using primary human mesenchymal stem cells (hMSCs) to determine their ability to induce chondrogenesis (process by which cartilage is developed).
Primary human mesenchymal stem cells (hMSCs) were purchased from Lonza (Walkersville, Md.) and expanded in Mesenchymal Stem Cell Growth Media (Lonza). Cells between passage 3 and 6 were used for the experiments.
To image chondrogenic nodules, the cells were fixed using 4% formaldehyde (Electron Microscopy Sciences), and stained with 2 μg/mL Rhodamine B (Sigma-Aldrich) and 20 μM Nile Red (Sigma-Aldrich) [Johnson K., et. al, A Stem Cell-Based Approach to Cartilage Repair, Science, (2012). […] Number of nodules in each well was normalized to the average of 3 DMSO treated wells on the same plate using Excel (Microsoft Inc.). The normalized averages (fold change over DMSO) of 3 replicate wells for each compound concentration were calculated. Due to solubility limitations of some of the compounds, curve fitting was incomplete leading to inaccurate EC50 determinations.
Using TGF-β3 as a positive control, the concentration of representative compounds required to induce 50% levels of chondrogenesis is reported. In addition, the maximum activity of each compound and the respective dose that each compound reached maximum chondrogenesis activity is reported.

[3] = test system: primary human fibroblasts derived from IPF patients (LL29 cells); assay: Inhibition of fibrotic process, αSMA staining in TGF-β1 treated fibroblasts; conditions: Fibroblast, 96 h, LL29 cells, TGF-β1 20 ng/mL, 4 days, % αSMA positive cells
Procedure: Representative compounds were screened using primary human fibroblasts (derived from IPF patients) treated with TGF-β1 to determine their ability to inhibit the fibrotic process.
LL29 cells are plated at 1,500 cells/well in 80 μL/well F12 medium supplemented with 1% Fetal Bovine Serum. […] Wells treated with TGF-31 and containing DMSO were used as controls. […] Following incubation for 4 days, SYTOX green nucleic acid stain (Life Technologies [Thermo Fisher Scientific]) was added to the wells at a final concentration of 1 μM and incubated at room temperature for 30 min.

IL-6 = IL-6 inhibition in LPS-stimulated THP-1 cells (HTRF); conditions: Homo sapiens; for EC50: THP-1 cells, LPS 500 ng/mL, 22 hours, IL6 HTRF; for inhibition at 10 µM: THP-1, read-out: percent inhibition at 10 μM
Procedure: THP-1 cells were cultured in basal media with 1% FBS for 24 hours before the start of the assay. […] THP-1 cells were plated at 5000 cells/well in the 384-well plates and incubated at 37° C. for 2 h. 500 ng/mL of LPS was added after 2 hours and cells were incubated for another 22 hours at 37° C. Plates were spun in a centrifuge for 1 minute at […] and a mixture of anti-IL6 XL665, and anti-IL6 Cryptate diluted in reconstitution buffer (Cisbio Inc.) was added to each well. Following incubation for 3 hrs at room temperature, Homogeneous Time-Resolved Fluorescence (HTRF) was measured using the Envision (Perkin Elmer) at 665 nm and […]. The ratio of fluorescence at 665 nm to 620 nm was used as a readout for IL6 quantification. All samples were processed in duplicate. Readings were normalized to DMSO treated cells and normalized activities were utilized for EC50 calculations using the dose-response log (inhibitor) vs. response−variable slope (four parameters) nonlinear regression feature available in GraphPad Prism 5.0 (or Dotmatics).

EC50 (SW480 colon cancer cells): 1130 nM
EC50 [1]: 594 nM
EC50 (IL-6): > 10000 nM
Compound: Fc1ccc(-c2cncc3[nH]c(-c4n[nH]c5ncc(-c6cncnc6)cc45)cc23)cc1 [Compound 55, 3-(4-(4-Fluorophenyl)-1H-pyrrolo[2,3-c]pyridin-2-yl)-5-(pyrimidin-5-yl)-1H-pyrazolo[3,4-b]pyridine]
Emax [2]: 24%
EC50 [3]: 854 nM
inhibition at 10 µM (IL-6): 29.8%

EC50 (SW480 colon cancer cells): 1910 nM
EC50 [1]: 2300 nM
EC50 (IL-6): 9080 nM
Compound: CCNCc1cncc(-c2cnc3[nH]nc(-c4cc5c(-c6ccccc6F)cncc5[nH]4)c3c2)c1 [Compound 62, N-((5-(3-(4-(2-Fluorophenyl)-1H-pyrrolo[2,3-c]pyridin-2-yl)-1H-pyrazolo [3,4-b]pyridin-5-yl)pyridin-3-yl)methyl)ethanamine]
Emax [2]: 37%
EC50 [3]: 2670 nM

EC50 (SW480 colon cancer cells): 2860 nM
EC50 [1]: 2090 nM
EC50 (IL-6): 1440 nM
Compound: CC(C)C(=O)Nc1cncc(-c2cnc3[nH]nc(-c4cc5c(-c6ccccc6F)cncc5[nH]4)c3c2)c1 [Compound 65, N-(5-(3-(4-(2-Fluorophenyl)-1H-pyrrolo[2,3-c]pyridin-2-yl)-1H-pyrazolo [3,4-b]pyridin-5-yl)pyridin-3-yl)isobutyramide]
Emax [2]: 45%
EC50 [3]: 2390 nM

EC50 (SW480 colon cancer cells): 1050 nM
EC50 [1]: 2490 nM
EC50 [2]: 30 nM
EC50 (IL-6): 131 nM
Compound: CN(C)Cc1cncc(-c2cnc3[nH]nc(-c4cc5c(-c6ccccc6F)cncc5[nH]4)c3c2)c1 [Compound 69, 1-(5-(3-(4-(2-Fluorophenyl)-1H-pyrrolo[2,3-c]pyridin-2-yl)-1H-pyrazolo [3,4-b]pyridin-5-yl)pyridin-3-yl)-N,N-dimethylmethanamine]
Emax [2]: 61%
EC50 [3]: 1890 nM

EC50 (SW480 colon cancer cells): 292 nM
EC50 [1]: 390 nM
EC50 [2]: 10 nM
EC50 (IL-6): > 10000 nM
Compound: O=C(Nc1cncc(-c2cnc3[nH]nc(-c4cc5c(-c6ccccc6F)cncc5[nH]4)c3c2)c1)C1CC1 [Compound 76, N-(5-(3-(4-(2-Fluorophenyl)-1H-pyrrolo[2,3-c]pyridin-2-yl)-1H-pyrazolo [3,4-b]pyridin-5-yl)pyridin-3-yl)cyclopropanecarboxamide]
Emax [2]: 52%
EC50 [3]: 110 nM
inhibition at 10 µM (IL-6): 22%

EC50 (SW480 colon cancer cells): 3290 nM
EC50 [1]: 2250 nM
EC50 (IL-6): 3440 nM
Compound: Cc1ccncc1-c1cnc2[nH]nc(-c3cc4c(-c5cccnc5)cncc4[nH]3)c2c1 [Compound 89, 5-(4-Methylpyridin-3-yl)-3-(4-(pyridin-3-yl)-1H-pyrrolo[2,3-c]pyridin-2-yl)-1H-pyrazolo[3,4-b]pyridine]
Emax [2]: 17%
EC50 [3]: 1480 nM

More lines, now with the values behind:

Compound: CCC(=O)Nc1cncc(-c2cnc3[nH]nc(-c4cc5c(-c6cccc(F)c6)cncc5[nH]4)c3c2)c1 [Compound 1, N-(5-(3-(4-(3-Fluorophenyl)-1H-pyrrolo[2,3-c]pyridin-2-yl)-1H-pyrazolo [3,4-b]pyridin-5-yl)pyridin-3-yl)propionamide]
EC50 (SW480 colon cancer cells): 771 nM
EC50 [1]: 246 nM
EC50 [2]: 10 nM
Emax [2]: 113%
EC50 [3]: 859 nM
EC50 (IL-6): 1180 nM

Compound: Fc1cccc(-c2cncc3[nH]c(-c4n[nH]c5ncc(-c6cccnc6)cc45)cc23)c1 [Compound 4, 3-(4-(3-Fluorophenyl)-1H-pyrrolo[2,3-c]pyridin-2-yl)-5-(pyridin-3-yl)-1H-pyrazolo[3,4-b]pyridine]
EC50 (SW480 colon cancer cells): 1070 nM
EC50 [1]: 572 nM
Emax [2]: 36%
EC50 [3]: 1010 nM
EC50 (IL-6): 232 nM

Compound: CC(C)Nc1cncc(-c2cnc3[nH]nc(-c4cc5c(-c6cccc(F)c6)cncc5[nH]4)c3c2)c1 [Compound 12, 5-(3-(4-(3-Fluorophenyl)-1H-pyrrolo[2,3-c]pyridin-2-yl)-1H-pyrazolo[3,4-b]pyridin-5-yl)-N-isopropylpyridin-3-amine]
EC50 (SW480 colon cancer cells): 851 nM
EC50 [1]: 238 nM
EC50 [2]: 900 nM
Emax [2]: 104%
EC50 [3]: 713 nM
EC50 (IL-6): 148 nM

Compound: Fc1cccc(-c2cncc3[nH]c(-c4n[nH]c5ncc(-c6cncc(CN7CCCCC7)c6)cc45)cc23)c1 [Compound 15, 3-(4-(3-Fluorophenyl)-1H-pyrrolo[2,3-c]pyridin-2-yl)-5-(5-(piperidin-1-ylmethyl)pyridin-3-yl)-1H-pyrazolo[3,4-b]pyridine]
EC50 (SW480 colon cancer cells): 3260 nM
EC50 [1]: 3120 nM
EC50 [2]: 10 nM
Emax [2]: 108%
EC50 [3]: 1970 nM
inhibition at 10 µM (IL-6): 41%
EC50 (IL-6): > 10000 nM

Compound: Fc1cccc(-c2cncc3[nH]c(-c4n[nH]c5ncc(-c6cncc(CNCc7ccccc7)c6)cc45)cc23)c1 [Compound 24, N-Benzyl-1-(5-(3-(4-(3-fluorophenyl)-1H-pyrrolo[2,3-c]pyridin-2-yl)-1H-pyrazolo[3,4-b]pyridin-5-yl)pyridin-3-yl)methanamine]
EC50 (SW480 colon cancer cells): 2800 nM
EC50 [1]: 3920 nM
EC50 [2]: 900 nM
Emax [2]: 65%
EC50 [3]: 1280 nM
EC50 (IL-6): 2090 nM

Compound: Cc1ccncc1-c1cnc2[nH]nc(-c3cc4c(-c5ccc(F)cc5)cncc4[nH]3)c2c1 [Compound 33, 3-(4-(4-Fluorophenyl)-1H-pyrrolo[2,3-c]pyridin-2-yl)-5-(4-methylpyridin-3-yl)-1H-pyrazolo[3,4-b]pyridine]
EC50 (SW480 colon cancer cells): 2090 nM
inhibition at 10 µM ([1]; SW480, read-out: percent inhibition at 10 μM): 49.4%
EC50 [1]: > 10000 nM
EC50 [2]: 10 nM
Emax [2]: 67%
EC50 [3]: 1040 nM
inhibition at 10 µM (IL-6): 26.1%
EC50 (IL-6): > 10000 nM

Compound: Fc1ccc(-c2cncc3[nH]c(-c4n[nH]c5ncc(-c6cncc(CN7CCCC7)c6)cc45)cc23)cc1 [Compound 42, 3-(4-(4-Fluorophenyl)-1H-pyrrolo[2,3-c]pyridin-2-yl)-5-(5-(pyrrolidin-1-ylmethyl)pyridin-3-yl)-1H-pyrazolo[3,4-b]pyridine]
EC50 (SW480 colon cancer cells): 940 nM
EC50 [1]: 2140 nM
EC50 [2]: 2700 nM
Emax [2]: 133%
EC50 [3]: 1290 nM
EC50 (IL-6): 3270 nM
